From patent US20060154252A1, “Methods and composition for identifying therapeutic agents of atherosclerotic plaque lesions” (priority 2002, published 2006)
Entries after “also recorded” stand apart in the source; their conditions may differ.

Test system: Differentiated-THP-1
Test: Vesicle formation in the presence of fatty acids (Nile Red staining)
Format: cell-based
Details: 200 μM albumin-coupled fatty acid, 24 hours, differentiated macrophage permanent cell line
Method: Fatty acids can be prepared according to Spector A A and Hoak J C, (1969 Anal. Biochem, 32: 297-302): Breifly, 100 μmol of fatty acid (12:0, 16:0, 18:0 and 20:0) can be dissolved in 7.5 ml of hexane containing 400 mg of Celite (Sigma). The solvent is then evaporated under nitrogen by continuous magnetic stirring. The fatty acid-coated particles are then mixed with fatty acid free albumin, in serum free medium for 1 hour at room temperature under nitrogen. After centrifugation, the supernatnts containing fatty acid coupled to albumin is conserved.
Vesicle formation in the presence of fatty acids was induced as follows: briefly, THP1 differentiation was induced in a medium supplemented with 10^−7 M of phorbol 12-myristate-13-acetate (Sigma) for 24 hours at 37° C., 5% CO2. Differentiated-THP-1 was incubated with or without 200 μM of fatty acid-BSA complexes for 24 hours at 37° C., 5% CO2. After washing and paraformaldhehyde fixation, cells were stained with Nile Red (1 μg/ml) and Hoechst 33342 (10 μg/ml) solution for 10 minutes at RT. After washing, images of cells staining with Nile Red and Hoechst 33342 were automatized captured using a fluorescence microscope controlled by MetaMorph Software (Universal Imaging) and coupled with a CCD camera. After images analysis, results were expressed as the sum of Nile red intensity per cells number.

## CCCCCCCCCCCCCCCCCC(=O)O [stearic acid]
  induction of lipid vesicles / foam cell formation (FIG. 9): Formation of foam cells; also recorded: induction of lipid vesicles
